BindingDB's records for PubMed 33764065 (Niddk, 2021)
pIC50, pKi: −log10 of the molar value.

Legend:
[1] = Binding affinity to bovine brain membrane BzR assessed as inhibition constant
[2] = Inhibition of human non pancreatic secretory phospholipase A2 incubated for 30 mins by plate reader analysis

pKi [1]	pIC50 [2]	SMILES
6.93	–	O=C(NCc1ccccc1)C(=O)c1c[nH]c2ccc([N+](=O)[O-])cc12 [N-benzyl-2-(5-nitro-1H-indol-3-yl)-2-oxoacetamide]
–	4.87	COc1ccc2c(c1)c(CC(=O)O)c(C)n2Cc1ccccc1 [1-BENZYL-5-METHOXY-2-METHYL-1H-INDOL-3-YL)-ACETIC ACID]
